The values that follow come from patent publication US11230526B1, “Cylcoalkenyl derivatives useful as agonists of the GPR120 and/or GPR40 receptors” (Janssen Pharmaceutica NV, priority 2018, dated 2022).

Common to all, as to type: cell-based
For assay [1], the target named is T1, human GPR40 (Homo sapiens, UniProt O14842).
T1 construct: expressed in transfected cells
Briefly: GPR40 calcium flux assay, human GPR40. Particulars: HEK293 cells stably expressing GPR40; table does not say human or rat. In short, it runs like this:
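Cells preincubated 1 h at 37° C. in HBSS, 20 mM HEPES, 0.1% BSA, then Fluo 8 calcium dye 30 min at 37° C. and 15 min at room temperature.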
(Calcium assays in cells follow changes in intracellular calcium, usually with a dye or a luminescent sensor.)

The target of assay [2] is T2, long form of human GPR120 (Homo sapiens, UniProt Q5NUL3).
T2 construct: host or cells: PathHunter CHO-K1 GPR120 β-Arrestin Cell Line
Put plainly: Human GPR120 DiscoveRx PathHunter Beta-Arrestin assay, Procedure β-arrestin A. In short, it runs like this: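 PathHunter CHO-K1 cells expressing long-form human GPR120 (3000/well) were seeded overnight. They were then preincubated 60 min in HBSS with 20 mM HEPES and 0.1% BSA, pH 7.4, and exposed to compound for 90 min at 37 °C. β-Arrestin recruitment was read as β-gal complementation luminescence. EC50 came from % activity versus positive control, Hill slope fixed at 1.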

In assay [3] the target is T3, Human GPR120 short form (Homo sapiens, UniProt Q5NUL3).
T3 construct: expressed in transfected cells
T3 sequence (Q5NUL3 1-361): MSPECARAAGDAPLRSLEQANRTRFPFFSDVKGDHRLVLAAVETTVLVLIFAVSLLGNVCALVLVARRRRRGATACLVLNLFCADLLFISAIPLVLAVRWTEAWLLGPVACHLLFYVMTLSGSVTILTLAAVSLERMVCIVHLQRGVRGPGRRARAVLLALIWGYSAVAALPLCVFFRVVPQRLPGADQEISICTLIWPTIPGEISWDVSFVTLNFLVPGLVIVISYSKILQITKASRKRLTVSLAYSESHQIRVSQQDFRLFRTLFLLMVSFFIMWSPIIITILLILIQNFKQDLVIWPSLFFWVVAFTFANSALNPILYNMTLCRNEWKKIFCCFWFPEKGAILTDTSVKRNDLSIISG
Briefly: Human GPR120 calcium flux assay, Procedure Calcium B (4200 cells/well). In short, it runs like this: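 HEK293 cells stably expressing human GPR120 (NM_001195755.1), 4200 cells/well, starved 1 h and loaded with Fluo-4 NW plus probenecid. Ligand-evoked calcium flux read on FLIPR for 300 s after a 10 s baseline. RFU = Fmax−Fmin; EC50 from four-parameter concentration-response fit.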

T1 sequence (O14842 whole entry): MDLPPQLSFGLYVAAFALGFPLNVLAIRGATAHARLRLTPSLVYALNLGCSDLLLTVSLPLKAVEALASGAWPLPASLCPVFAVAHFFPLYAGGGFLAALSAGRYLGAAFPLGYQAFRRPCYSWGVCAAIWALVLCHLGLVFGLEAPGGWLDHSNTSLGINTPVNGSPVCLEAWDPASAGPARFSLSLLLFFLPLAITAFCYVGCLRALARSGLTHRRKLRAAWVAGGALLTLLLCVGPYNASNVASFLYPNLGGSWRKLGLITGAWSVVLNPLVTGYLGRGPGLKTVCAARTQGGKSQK
T2 sequence (Q5NUL3 1-377 isoform Q5NUL3-1): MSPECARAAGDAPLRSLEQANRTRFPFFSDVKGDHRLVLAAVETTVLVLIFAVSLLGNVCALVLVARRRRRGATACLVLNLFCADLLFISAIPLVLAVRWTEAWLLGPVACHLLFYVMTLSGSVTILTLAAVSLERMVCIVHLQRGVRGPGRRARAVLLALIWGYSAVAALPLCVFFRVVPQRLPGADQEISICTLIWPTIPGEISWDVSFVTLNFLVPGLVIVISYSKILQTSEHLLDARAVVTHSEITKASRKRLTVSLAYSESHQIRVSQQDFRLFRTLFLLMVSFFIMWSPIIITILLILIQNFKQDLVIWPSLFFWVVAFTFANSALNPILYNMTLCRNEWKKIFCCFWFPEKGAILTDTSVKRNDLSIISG
T2 sequence (P32121 whole entry partner): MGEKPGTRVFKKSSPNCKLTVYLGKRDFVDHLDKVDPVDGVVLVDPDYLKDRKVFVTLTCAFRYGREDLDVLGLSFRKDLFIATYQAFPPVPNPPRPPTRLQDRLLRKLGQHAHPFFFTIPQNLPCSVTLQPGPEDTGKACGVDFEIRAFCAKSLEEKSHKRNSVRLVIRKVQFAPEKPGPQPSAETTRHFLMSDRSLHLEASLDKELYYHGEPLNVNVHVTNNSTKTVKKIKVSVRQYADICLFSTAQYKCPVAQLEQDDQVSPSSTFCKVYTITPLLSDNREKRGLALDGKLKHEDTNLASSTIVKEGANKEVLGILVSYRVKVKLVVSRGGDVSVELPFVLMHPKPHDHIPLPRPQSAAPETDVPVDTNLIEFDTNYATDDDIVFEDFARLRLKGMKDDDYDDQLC

Broadly, the EC50 is the concentration needed to bring the measured effect to its halfway point. With `CC(C)c1cc(OCC2=C(c3ccc(Cl)cc3)CCC2)ccc1CCC(=O)O` [Compound 167, 3-[4-[[2-(4-chlorophenyl)cyclopenten-1-yl]methoxy]-2-isopropyl-phenyl]Propanoic Acid], the results for the EC50 in assay [1], in assay [2] and in assay [3] were 1250 nM, 727 nM and 503 nM, respectively.

Take `Cc1ccc(C2=C(COc3c(F)cc(CCC(=O)O)cc3F)CC(F)(F)CC2)s1` [Compound 562, 3-[4-[[5,5-difluoro-2-(5-methyl-2-thienyl)cyclohexen-1-yl]methoxy]-3,5-difluoro-phenyl]Propanoic Acid]: the EC50 in assay [1] was > 5000 nM; in assay [2], 245 nM; in assay [3], 119 nM.

As to `O=C(O)CCc1ccc(OCC2=C(c3ccc(F)cc3)CCC2)c(F)c1` [Compound 49], the EC50 was > 5000 nM in assay [1], 123 nM in assay [2] and 136 nM in assay [3].

As to `Cc1cc(OCC2=C(c3ccc(Cl)cc3)CCC2)c(Br)cc1CCC(=O)O` [Compound 67], the EC50 is > 5000 nM in assay [1], 167 nM in assay [2] and 73 nM in assay [3].

As to `Cc1c(CCC(=O)O)ccc(OCC2=C(c3ccc(F)cc3)CCC(F)(F)C2)c1C` [Compound 497, 3-[4-[[5,5-difluoro-2-(4-fluorophenyl)cyclohexen-1-yl]methoxy]-2,3-dimethyl-phenyl]Propanoic Acid], the EC50 in assay [1] is > 5000 nM; in assay [2], 122 nM; in assay [3] it was 75 nM.

For the compound `Cc1cc(CCC(=O)O)ccc1OCC1=C(c2cccs2)CCC(F)(F)C1` [Compound 560, 3-[4-[[5,5-difluoro-2-(2-thienyl)cyclohexen-1-yl]methoxy]-3-methyl-phenyl]Propanoic Acid], the figures for the EC50 in assay [1], in assay [2] and in assay [3] were 4100 nM, 175 nM and 118 nM, respectively.

Turning to `O=C(O)CCc1ccc(OCC2=C(c3ccc(Cl)cc3)CCC2)cc1OC(F)(F)F` [Compound 96, 3-[4-[[2-(4-chlorophenyl)cyclopenten-1-yl]methoxy]-2-(trifluoromethoxy)phenyl]Propanoic Acid], the results for the EC50 in assay [1], in assay [2] and in assay [3] were 1780 nM, 981 nM and 875 nM, respectively.

`COc1cc(OCC2=C(c3ccc(Cl)cc3)CCC2)ccc1CCC(=O)O` [Compound 97, 3-[4-[[2-(4-chlorophenyl)cyclopenten-1-yl]methoxy]-2-methoxy-phenyl]Propanoic Acid]: the figures for the EC50 in assay [1], in assay [2] and in assay [3] were 834 nM, 754 nM and 237 nM, respectively.

Take `COc1ncc(C2=C(COc3ccc(CCC(=O)O)cc3C)CCC2)cc1F` [Compound 222, 3-[4-[[2-(5-fluoro-6-methoxy-3-pyridyl)cyclopenten-1-yl]methoxy]-3-methyl-phenyl]Propanoic Acid]: the results for the EC50 in assay [1], in assay [2] and in assay [3] were > 5000 nM, 132 nM and 57 nM, respectively.

As for `O=C(O)CCc1ccc(OCC2=C(c3ccc(F)cc3)CCC2)cc1` [Compound 43, 3-[4-[[2-(4-fluorophenyl)cyclopenten-1-yl]methoxy]phenyl]Propanoic Acid], the 50% effective concentration (EC50) in assay [1] amounted to 3030 nM; in assay [2], 208 nM; in assay [3], 207 nM.

For `Cc1c(CCC(=O)O)ccc(OCC2=C(c3ccco3)CCC2)c1C` [Compound 210, 3-[4-[[2-(2-furyl)cyclopenten-1-yl]methoxy]-2,3-dimethyl-phenyl]Propanoic Acid], the EC50 in assay [1] was > 5000 nM; in assay [2], 110 nM; in assay [3], 137 nM.

`Cc1cc(CCC(=O)O)ccc1OCC1=C(c2cccc(F)c2)CC(F)(F)C1` [Compound 191, 3-[4-[[4,4-difluoro-2-(3-fluorophenyl)cyclopenten-1-yl]methoxy]-3-methyl-phenyl]Propanoic Acid]: the concentration for a half-maximal effect (EC50) was > 5000 nM in assay [1], 259 nM in assay [2] and 27 nM in assay [3].
